One may read the EC50 as the concentration that produces a half-maximal response. As usually defined, the CC50 is the concentration giving 50% cytotoxicity. Low values mean greater toxicity to the cells, high ones lower toxicity to the cells.

Data set [1] relates to Plasmodium falciparum. Briefly: NOVARTIS: Inhibition of Plasmodium falciparum 3D7 (drug-susceptible) proliferation in erythrocyte-based infection assay. The format is functional, organism-based. To be noted: Plasmodium falciparum, 3D7.
Data set [2] concerns Plasmodium falciparum. Briefly: NOVARTIS: Inhibition of Plasmodium falciparum W2 (drug-resistant) proliferation in erythrocyte-based infection assay. It is filed as functional, organism-based. To be noted: Plasmodium falciparum, W2; read-out: EC50.
Data set [3] can be described thus: NOVARTIS: Cytotoxicity against human hepatocellular carcinoma cell line (Huh7). The format is toxicity, cell-based, Huh-7. To be noted: Huh7 cells (hepatocellular carcinoma cell line).

Regarding `CN(C)CCCNc1c2ccccc2nc2ccccc12`, the EC50 came to 0.0327 µM in the data set on Plasmodium falciparum [1] and 0.387 µM in the data set with Plasmodium falciparum [2]. The compound also showed a CC50 in data set [3] of 8.45 µM.
On the same counts, the results for `c1ccc(-c2nc(NCCCn3ccnc3)cc(-c3ccncc3)n2)cc1` are 0.238 µM, 0.458 µM and greater than 10 µM.
The corresponding values for `CN(C)CCn1c(=N)n(CC(O)c2ccc(Cl)c(Cl)c2)c2ccccc21` (centres undefined) are 0.256 µM, 0.457 µM and greater than 10 µM.
Take `O=C(Cn1c2ccccc2c(=O)c2ccc(Cl)cc21)Nc1ccc(C(F)(F)F)cc1`: the EC50 stood at 9.87 µM with Plasmodium falciparum [1] and 4.54 µM in the data set with Plasmodium falciparum [2]. The compound further registered a CC50 in data set [3] greater than 100 µM.
The corresponding values for `COc1cc(NC(C)CCCN(Cc2ccc(OC)c(OC)c2)C(=O)c2ccc3ccccc3c2)c2ncccc2c1` (centres undefined) are 0.409 µM, 0.247 µM and 5.33 µM.
For the compound `CC[C@@H](C(=O)[C@@H](C)[C@@H](O)[C@H](C)CCc1ccc(C)c(O)c1C(=O)O)[C@H]1O[C@](CC)([C@H]2CC[C@](O)(CC)[C@@H](C)O2)C[C@@H]1C`, the EC50 is 0.726 µM in the data set on Plasmodium falciparum [1] and 0.468 µM with Plasmodium falciparum [2]. The compound further yielded a CC50 in data set [3] greater than 10 µM.
On the same counts, the results for `OC1(c2ccc(Br)cc2)CCN(C2CCN(Cc3ccccc3)CC2)CC1` are 0.183 µM, 0.433 µM and 9.26 µM.
On to `COc1cc(NC(C)CCCN(Cc2ccc(N(C)C)cc2)S(=O)(=O)c2cccc3ccccc23)c2ncccc2c1` (centres undefined), for which the EC50 in the data set with Plasmodium falciparum [1] worked out at 0.806 µM; in the data set on Plasmodium falciparum [2], 0.645 µM. For the same compound, in data set [3], the CC50 was greater than 13.9 µM.
The corresponding values for `CC(NS(=O)(=O)c1ccccc1)C(=O)NC1CCCC1` (centres undefined) are greater than 4.32 µM, 4.62 µM and greater than 100 µM.
On the same counts, the results for `CCOC(=O)c1ccc2nc3c(nc2c1)C(=O)c1ccccc1C3=O` are 0.0267 µM, 0.0236 µM and 0.512 µM.
The corresponding values for `COc1ccccc1NC1=CC(=NS(=O)(=O)c2cccs2)c2ccccc2C1=O` are 1.07 µM, 0.906 µM and 19.7 µM.
Turning to `CN(C)c1cc[n+](OC(=O)N2CCCCC2)cc1`, the EC50 in the data set with Plasmodium falciparum [1] was 0.133 µM; with Plasmodium falciparum [2] it was greater than 0.455 µM. In data set [3], this compound returned a 50% cytotoxic concentration (CC50) greater than 10 µM.
Take `CCOc1ccc(Nc2nc(NCc3ccco3)c3ccccc3n2)cc1`: the EC50 in the data set with Plasmodium falciparum [1] was determined as 0.288 µM; with Plasmodium falciparum [2], 0.528 µM. The midpoint of cytotoxicity in data set [3], the CC50, lay at 11.6 µM.
On the same counts, the results for `Brc1ccc(-c2cn3c([n+]2Cc2ccccc2)SCCC3)cc1` are 0.413 µM, 2.45 µM and 53.3 µM.
As for `CN(CCCNc1ccnc2cc(Cl)ccc12)C(=O)c1cc(Cl)cc(Cl)c1`, the results for the EC50 in the data set with Plasmodium falciparum [1] and with Plasmodium falciparum [2] were 0.235 µM and 0.46 µM, respectively. The CC50 in data set [3] was greater than 10 µM.
For the compound `CCCCCCCc1ccc(-c2nnc(-c3ccc([N+](=O)[O-])cc3)o2)cc1`, the EC50 in the data set with Plasmodium falciparum [1] was greater than 1.25 µM; in the data set with Plasmodium falciparum [2], greater than 0.459 µM. Besides, in data set [3], the CC50 was greater than 10 µM.
As for `CCOC(=O)C1=C(C)N(c2ccc(N(C)C)cc2)C(C)=C(C(=O)OCC)C1c1ccc(Br)cc1`, the EC50 in the data set with Plasmodium falciparum [1] is greater than 1.13 µM; in the data set with Plasmodium falciparum [2], 0.896 µM. Moreover, in data set [3], half-maximal cytotoxicity (CC50) was put at 19.6 µM.
`CCC(C)NC(=O)C1CSC(c2cccc(F)c2)N1C(=O)c1cc(OC)c(OC)c(OC)c1` (centres undefined): the EC50 with Plasmodium falciparum [1] was greater than 1.25 µM; with Plasmodium falciparum [2], 0.0298 µM. In addition, the CC50 in data set [3] was greater than 0.654 µM.
The corresponding values for `Cn1nc(C(=O)NCc2ccc(F)cc2)c2c1CCC(N1CCC(CO)CC1)C2` (centres undefined) are greater than 1.25 µM, greater than 0.454 µM and greater than 10 µM.
On the same counts, the results for `CCOC(=O)C1(CC2CCCCO2)CCN(C(=O)Nc2cccc(SC)c2)CC1` (centres undefined) are greater than 12.5 µM, 4.53 µM and greater than 100 µM.
On the same counts, the results for `CCN(CC)c1ccc(NC(=O)C2Cc3ccccc3CN2S(=O)(=O)c2ccc(F)cc2)cc1` (centres undefined) are 7.43 µM, 4.53 µM and greater than 100 µM.
As to `O=C(NCCCCNc1ccnc2cc(Cl)ccc12)c1cccc(Br)c1`, the EC50 in the data set on Plasmodium falciparum [1] was 0.422 µM; with Plasmodium falciparum [2], 0.453 µM. Also, the CC50 in data set [3] is greater than 10 µM.
The corresponding values for `Oc1ccccc1-c1nc2sc(-c3ccccc3O)nc2s1` are greater than 0.989 µM, 0.467 µM and greater than 10 µM.
The corresponding values for `Cc1ccc(C)c(Nc2nc3c(s2)CCCC3)c1` are greater than 12.5 µM, 4.5 µM and greater than 100 µM.
Take `COC(=O)C1=CNC=C(C(=O)OC)C1c1cc(OC)c(OC)c(OC)c1`: the figures for the EC50 in the data set on Plasmodium falciparum [1] and in the data set with Plasmodium falciparum [2] were 8.99 µM and 4.5 µM, respectively. The same compound registered a CC50 in data set [3] greater than 100 µM.
On the same counts, the results for `CCn1cc(C(=O)NCCC2=CCCCC2)c(=O)c2cc(S(=O)(=O)N(C)C)ccc21` are greater than 1.25 µM, greater than 0.449 µM and greater than 10 µM.
As to `CCc1cc(C(=O)N2CCC[C@@H]3CN(C(=O)c4ccc(F)cc4)CC[C@@H]32)n(C)n1`, the EC50 with Plasmodium falciparum [1] is greater than 12.5 µM; with Plasmodium falciparum [2] it was 4.67 µM. The CC50 in data set [3] was greater than 100 µM.
On the same counts, the results for `O=C1CN=C(c2ccccc2Cl)c2cc(Cl)ccc2N1Cc1cccc([N+](=O)[O-])c1` are greater than 4.47 µM, greater than 4.67 µM and greater than 100 µM.
For `COc1ccc(-c2cnnc(NN=Cc3ccc([N+](=O)[O-])o3)n2)cc1`, the EC50 with Plasmodium falciparum [1] was greater than 1.25 µM; in the data set on Plasmodium falciparum [2], greater than 0.464 µM. Further, in data set [3], the CC50 is greater than 10 µM.
Turning to `Cc1cc(NC2CCCCC2)nc(NCc2ccccc2)n1`, the EC50 in the data set on Plasmodium falciparum [1] was 0.296 µM; in the data set with Plasmodium falciparum [2] it was 0.364 µM. In data set [3], this compound had a CC50 of 7.87 µM.
The corresponding values for `O=C1N(c2ccccc2)C[C@@H]2C[C@@H](c3ccc(C#CCCO)cc3)N3CCC[C@@]123` are 0.832 µM, 0.757 µM and 16.8 µM.
In the case of `COC(=O)c1ccccc1NC(=O)CN(C)c1nc(-c2ccc(OC)cc2)no1`, the results for the EC50 with Plasmodium falciparum [1] and with Plasmodium falciparum [2] were 0.786 µM and 0.449 µM, respectively. Moreover, the CC50 in data set [3] was greater than 10 µM.
Turning to `CC[N+](C)(CC)CCSc1nc2ccccc2c(=S)n1-c1ccc(OC)cc1`, the results for the EC50 with Plasmodium falciparum [1] and in the data set on Plasmodium falciparum [2] were 0.285 µM and 0.451 µM, respectively. Moreover, the CC50 in data set [3] was greater than 10 µM.
`CCCCNCCOCCOc1ccc(Br)cc1`: the EC50 in the data set on Plasmodium falciparum [1] was greater than 11.7 µM; with Plasmodium falciparum [2], 1.61 µM. In data set [3], this compound had a CC50 of 35.7 µM.
The corresponding values for `CN(Cc1cc2ccc(F)cc2n(CCN2CCCCC2)c1=O)CC1COCCO1` (centres undefined) are greater than 12.5 µM, 4.62 µM and greater than 100 µM.
Turning to `CCOc1cccc2oc(=O)c(C(=O)Nc3cc(C(C)(C)C)on3)cc12`, the EC50 was greater than 11.7 µM with Plasmodium falciparum [1] and greater than 4.62 µM in the data set with Plasmodium falciparum [2]. The same compound gave a CC50 in data set [3] greater than 100 µM.
Turning to `CCN1CCN(c2cc(C)c3cc(NC(=O)c4cc(OC)cc(OC)c4)ccc3n2)CC1`, the results for the EC50 in the data set on Plasmodium falciparum [1] and with Plasmodium falciparum [2] were 0.183 µM and 0.587 µM, respectively. In data set [3], the CC50 is 12.9 µM.
Regarding `COc1cc2nc(SCC(C)C)n(CCCn3ccnc3)c(=N)c2cc1OC`, the EC50 in the data set on Plasmodium falciparum [1] is 0.822 µM; with Plasmodium falciparum [2], 0.926 µM. The same compound yielded a CC50 in data set [3] of 19.9 µM.
The corresponding values for `C/C=C/[P+](c1ccccc1)(c1ccccc1)c1ccccc1` are 0.0528 µM, 0.13 µM and 2.81 µM.
Turning to `C=C[C@H]1CN2CC[C@H]1C[C@H]2[C@H](OC(=O)CCCC)c1ccnc2ccccc12`, the EC50 in the data set on Plasmodium falciparum [1] came to 0.942 µM; with Plasmodium falciparum [2], 0.452 µM. The same compound returned a CC50 in data set [3] greater than 10 µM.
The corresponding values for `OC1(c2ccc(Cl)c(C(F)(F)F)c2)CCN(CCOC2c3ccccc3CSc3ccc(Cl)cc32)CC1` (centres undefined) are 1.01 µM, 0.888 µM and 19.2 µM.
As to `C/C(Cl)=C/C[N+]1(CC#Cc2cccc3ccccc23)CCOCC1`, the figures for the EC50 with Plasmodium falciparum [1] and with Plasmodium falciparum [2] were 0.672 µM and 0.449 µM, respectively. In data set [3], this compound registered a CC50 greater than 10 µM.
In the case of `CCN(C(C)=O)C1=C(N2CCOCC2)C(=O)c2ccccc2C1=O`, the EC50 in the data set on Plasmodium falciparum [1] turned out to be 0.168 µM; in the data set with Plasmodium falciparum [2], 0.185 µM. Also, the CC50 in data set [3] amounted to 4.09 µM.
On the same counts, the results for `O=C(CN1CCCC1)Nc1c2c(nc3c1CCC3)CCC2` are greater than 1.25 µM, greater than 0.462 µM and greater than 10 µM.
On the same counts, the results for `CCOC(=O)C1=C(c2ccccc2)N=c2sc(=Cc3c(C)n(Cc4ccc(F)cc4)c4ccccc34)c(=O)n2C1c1cccc(OC)c1OC` (centres undefined) are 1.13 µM, 4.62 µM and greater than 100 µM.
The corresponding values for `CC(C)(C)C1=NN(CC(=O)NCCc2c[nH]cn2)C(=O)c2cc3ccccc3n2C1` are greater than 1.25 µM, greater than 0.614 µM and greater than 13.2 µM.
Take `N#Cc1ccccc1Cn1ccc(=NCc2ccccc2)cc1`: the EC50 with Plasmodium falciparum [1] is 1.06 µM; with Plasmodium falciparum [2], greater than 0.465 µM. Also, in data set [3], the CC50 was greater than 10 µM.
Regarding `N#C/C(=C\c1cn(Cc2ccccc2Cl)c2ccccc12)c1nn(CCO)c(N)c1C#N`, the EC50 in the data set on Plasmodium falciparum [1] was 0.5 µM; in the data set on Plasmodium falciparum [2] it was 0.45 µM. Further, in data set [3], the 50% cytotoxic concentration (CC50) was greater than 10 µM.
On the same counts, the results for `O=C(c1cc2nc(-c3ccccc3)cc(C(F)(F)F)n2n1)N1CCN(Cc2ccccc2)CC1` are 2.92 µM, 4.59 µM and greater than 100 µM.
On the same counts, the results for `CN1CCC(N2CCC(Oc3cccc(C(=O)NCCC4=CCCCC4)c3)CC2)CC1` are 0.78 µM, 0.944 µM and 20.7 µM.
Regarding `O=C(c1ccc2ccccc2c1)N1CCc2ccccc21`, the figures for the EC50 in the data set with Plasmodium falciparum [1] and in the data set on Plasmodium falciparum [2] were 3.5 µM and 4.57 µM, respectively. Further, the CC50 in data set [3] is greater than 100 µM.
The corresponding values for `Cc1ccc(S(=O)(=O)Oc2ccc(C=NN=C(N)N)cc2)cc1` are 0.155 µM, 0.631 µM and 14.1 µM.
Consider `C[n+]1cc(-c2ccc3cccc([N+](=O)[O-])c3n2)cc2ccccc21`, for which the EC50 worked out at 0.364 µM in the data set on Plasmodium falciparum [1] and 0.45 µM with Plasmodium falciparum [2]. For the same compound, the CC50 in data set [3] was greater than 10 µM.
